Experimental data as given in ChEMBL document CHEMBL3875190, “MARK inhibitors: Declaring a No-Go decision on a chemical series based on extensive DMPK experimentation” (Bioorg Med Chem Lett, 2017).

Tests used:
[1] = Half life in rat liver microsomes; format: ADME
[2] = molecular target: MAP/microtubule affinity-regulating kinase 3 (Homo sapiens, UniProt P27448); test: Inhibition of MARK3 (unknown origin)
[3] = Partition coefficient, logD of compound at pH 7 by HPLC analysis; format: physicochemical; settings: octanol/water
[4] = Volume of distribution in rat; format: ADME; settings: in vivo
[5] = Drug metabolism in rat hepatocytes assessed as oxidation; format: ADME, cell-based, Hepatocyte
[6] = Total plasma clearance in rat; format: ADME, cell-free
[7] = Drug metabolism in rat hepatocytes assessed as glucuronidation; format: ADME, cell-based, Hepatocyte
[8] = Drug excretion in bile duct-cannulated rat urine after 8 hrs by chromatographic analysis; format: ADME; settings: read-out: Drug excretion
[9] = Drug recovery in bile duct-cannulated rat bile after 8 hrs by chromatographic analysis; format: ADME, tissue-based; settings: read-out: Drug recovery
[10] = Drug excretion in bile duct-cannulated rat bile after 8 hrs by chromatographic analysis; format: ADME, tissue-based; settings: read-out: Drug excretion
[11] = Drug recovery in bile duct-cannulated rat urine after 8 hrs by chromatographic analysis; format: ADME; settings: read-out: Drug recovery
[12] = Stability in rat liver cytosol; format: ADME
[13] = Stability in human liver cytosol; format: ADME
[14] = Half life in human liver microsomes; format: ADME
[15] = Total plasma clearance in dog; format: ADME, cell-free, Canis lupus familiaris
[16] = Half life in dog liver microsomes; format: ADME, Canis lupus familiaris
[17] = Drug metabolism in human liver microsomes assessed as oxidative metabolite formation; format: ADME
[18] = Drug metabolism in rat liver microsomes assessed as lactam hydrolysis; format: ADME
[19] = Drug metabolism in human liver microsomes assessed as lactam hydrolysis; format: ADME
[20] = Drug metabolism in rat liver microsomes assessed as oxidative metabolite formation; format: ADME

Sequence of MAP/microtubule affinity-regulating kinase 3 (P27448 whole entry): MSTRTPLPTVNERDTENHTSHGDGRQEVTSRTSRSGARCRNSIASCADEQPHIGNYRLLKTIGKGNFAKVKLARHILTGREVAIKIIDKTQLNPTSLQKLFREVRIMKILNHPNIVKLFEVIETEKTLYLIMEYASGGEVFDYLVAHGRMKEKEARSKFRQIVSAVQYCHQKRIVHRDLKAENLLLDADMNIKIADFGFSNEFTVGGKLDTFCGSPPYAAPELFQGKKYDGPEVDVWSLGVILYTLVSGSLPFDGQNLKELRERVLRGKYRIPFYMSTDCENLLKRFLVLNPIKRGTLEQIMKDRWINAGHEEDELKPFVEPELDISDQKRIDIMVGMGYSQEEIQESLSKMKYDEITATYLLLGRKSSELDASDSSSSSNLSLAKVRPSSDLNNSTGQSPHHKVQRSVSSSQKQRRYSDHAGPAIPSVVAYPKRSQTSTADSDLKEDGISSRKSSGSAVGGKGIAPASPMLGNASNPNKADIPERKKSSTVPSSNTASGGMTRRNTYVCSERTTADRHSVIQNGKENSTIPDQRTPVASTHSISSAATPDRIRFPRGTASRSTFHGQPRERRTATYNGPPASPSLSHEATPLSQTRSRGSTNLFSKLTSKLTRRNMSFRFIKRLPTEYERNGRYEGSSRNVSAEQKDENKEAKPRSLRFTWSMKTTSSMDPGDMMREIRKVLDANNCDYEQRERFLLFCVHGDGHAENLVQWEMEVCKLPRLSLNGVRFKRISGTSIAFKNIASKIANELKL

| IC50 [2] | logD [3] | Vd [4] | clearance [6] | Compound | half-life [1] | other results |
| --- | --- | --- | --- | --- | --- | --- |
| 60 nM | 2.3 | 2.9 L/kg | 81 mL/min/kg | CC[C@H](C)N1C(=O)C2(CC2)c2cnc(Nc3cccnc3)nc21 | 25 min | Drug metabolism [5]: Metabolite_Detected |
| – | 3.98 | 14 L/kg | 269 mL/min/kg | CC[C@H](C)N1C(=O)C(C)(C)c2cnc(Nc3ccc(CN4CC(C)OC(C)C4)cc3)nc21 (stereo partly specified) | – | – |
| – | 2.68 | 3 L/kg | 135 mL/min/kg | CC[C@H](C)N1C(=O)C(C)(C)c2cnc(Nc3ccc(CN4CCC(=O)N(C)CC4)cc3)nc21 | – | – |
| – | – | – | – | CC1(C)C(=O)N([C@H]2CCc3c(O)cccc32)c2nc(Nc3ccccc3)ncc21 | – | Drug metabolism [7]: Metabolite_Detected; Drug metabolism [5]: Metabolite_Detected |
| – | 2.81 | 6.8 L/kg | 154 mL/min/kg | C[C@@H](c1ccc(F)cc1)N1C(=O)C(C)(C)c2cnc(Nc3cccnc3)nc21 | – | – |
| – | 2.79 | 96 L/kg | 188 mL/min/kg | CC[C@H](C)N1C(=O)C(C)(C)c2cnc(Nc3ccc(CNC4CCCOC4)cc3)nc21 (stereo partly specified) | – | – |
| – | – | – | – | [3H]c1nc(Nc2cccnc2)nc2c1C(C)(C)C(=O)N2[C@H](C)CC | – | dose excreted at 8 h [8]: > 95%; dose excreted at 8 h [9]: 60 to 90%; dose excreted at 8 h [10]: > 95%; dose excreted at 8 h [11]: 60 to 90%; Stability [12]: Stable; Stability [13]: Stable |
| 120 nM | 3.09 | – | 84 mL/min/kg | CC[C@H](C)N1C(=O)C(C)(C)c2cnc(Nc3ccc(S(C)(=O)=O)cc3)nc21 | 26 min | clearance [15]: 3 mL/min/kg; half-life [16]: 80 min |
| – | 2.56 | 5.2 L/kg | – | CC[C@H](C)N1C(=O)C(C)(C)c2cnc(Nc3cccnc3)nc21 | – | – |
| 80 nM | 2.21 | – | – | CC[C@H](C)N1C(=O)C(C)(C)c2cnc(Nc3ccc(-c4nnc(C)[nH]4)cc3)nc21 | 50 min | clearance [15]: 10 mL/min/kg; half-life [16]: 80 min |
| – | 2.54 | 35 L/kg | 65 mL/min/kg | CC[C@H](C)N1C(=O)C(C)(C)c2cnc(Nc3ccc(CN4CCN(C)CC4)cc3)nc21 | – | – |
| – | – | – | – | CC1(C)C(=O)N(C2CCCCC2)c2nc(Nc3cccc(CN4CCOCC4)c3)ncc21 | – | Drug metabolism [17]: Metabolite_Detected; Drug metabolism [18]: Metabolite_Detected; Drug metabolism [19]: Metabolite_Detected; Drug metabolism [20]: Metabolite_Detected |
| – | 2.82 | 2.8 L/kg | 47 mL/min/kg | CC1(C)C(=O)N(C2CCCCC2)c2nc(Nc3cccnc3)ncc21 | – | – |

| Compound | IC50 [2] | logD [3] | Vd [4] | clearance [6] | half-life [1] | other results |
| --- | --- | --- | --- | --- | --- | --- |
| CC(=O)N1CCC(N2C(=O)C(C)(C)c3cnc(Nc4cccnc4)nc32)CC1 | 2100 nM | 1.18 | 1.4 L/kg | 11 mL/min/kg | > 60 min | half-life [14]: > 60 min |
| CC(=O)N1CCC(N2C(=O)C(C)(C)c3cnc(Nc4ccc(F)cc4)nc32)CC1 | 2800 nM | 2.5 | 1.6 L/kg | 37 mL/min/kg | > 60 min | half-life [14]: 51 min |
| CC(=O)N1CCC(N2C(=O)C(C)(C)c3cnc(Nc4ccccc4)nc32)CC1 | – | 1.6 | 1.1 L/kg | 37 mL/min/kg | 38 min | half-life [14]: 30 min |
